Patent publication US9801919B2, “Oral compositions containing enhanced antibacterial combinations of antioxidants and extracts of magnolia” (WM. WRIGLEY JR. COMPANY, priority 2008, dated 2017)

Tests used:
S. mutans [1] = details: active principles of Magnolia Cortex extracts; cited from earlier work
S. sobrinus = experiment: MIC and FIC of MBE and common antioxidants against S. sobrinus (broth two-fold dilution); assay type: cell-based, Streptococcus sobrinus; details: sample alone, lowest concentration with no visible growth, aerobic 37° C., 1-2 days; for MIC: Streptococcus sobrinus
Method: (§1) To evaluate an enhanced effect of an active ingredient in combination of magnolia with antioxidant, the fractional inhibitory index (FIC) is computed according to equation (1): […]
S. Sobrinus, another common pathogen associated with dental plaque is also associated with dental caries.
BHA, BHT, gallic acid, octyl gallate and magnolia bark extract (MBE) samples were dissolved in ethanol to produce 1-10% working solution and was added to a nutrient broth and shaken well and was diluted two-fold in individual test tubes A total of 0.2 mL of inoculated bacteria culture purchased from ATCC was added to each test tube. The tubes were incubated aerobically at 37° C. for 1-2 days.

S. mutans [2] = experiment: MIC and FIC of MBE and common antioxidants against S. mutans (broth two-fold dilution); assay type: cell-based, Streptococcus mutans; details: sample alone, lowest concentration with no visible growth, aerobic 37° C., 1 to 2 days; for MIC: Streptococcus mutans
Method: as §1
The following tests were conducted on S. mutans.
BHA, gallic acid, octyl gallate and magnolia bark extract (MBE) sample were dissolved in ethanol to produce 1-10% working solution and was added to a nutrient broth and shaken well and was diluted two-fold in individual test tubes. A total of 0.2 milliliter (mL) of inoculated bacteria culture purchased from American Type Culture Collection (ATCC) was added to each test tube. The tubes were incubated aerobically at 37° C. for 1 to 2 days. […] FIC values were determined by equation 1.

SMILES	bactericidal against S. mutans in in vitro MIC test (S. mutans [1])	MIC (S. sobrinus)	also measured
CCCc1ccc(O)c(-c2ccc(O)c(CCC)c2)c1 [tetrahydrohonokiol]	bactericidal	–	–
CCCCCCCCOC(=O)c1cc(O)c(O)c(O)c1 [Octyl gallate]	–	250 µg/mL	MIC (S. mutans [2]): 250 µg/mL
CCCc1ccc(O)c(-c2cc(CCC)ccc2O)c1 [tetrahydromagnolol]	bactericidal	–	–
C=CCc1ccc(O)c(-c2ccc(O)c(CC=C)c2)c1 [honokiol]	bactericidal	–	–
O=C(O)c1cc(O)c(O)c(O)c1 [Gallic acid]	–	> 2000 µg/mL	MIC (S. mutans [2]): > 2000 µg/mL
Cc1cc(C(C)(C)C)c(O)c(C(C)(C)C)c1 [BHT, butylated hydroxytoluene]	–	> 2000 µg/mL	–
C=CCc1ccc(O)c(-c2cc(CC=C)ccc2O)c1 [magnolol]	bactericidal	–	–
COc1ccc(O)c(C(C)(C)C)c1 [BHA, butylated hydroxyanisole]	–	–	MIC (ppm) (S. sobrinus): 500 ppm; MIC (ppm) (S. mutans [2]): 250 ppm
